Data taken from PubChem BioAssay AID179 (DTP/NCI, 2004).
pEC50, pIC50: −log10 of the molar value. The source made the active and inactive calls.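 How the source made its calls: active means compounds giving half or more protection of infected cells from virus-caused growth loss, again on retest; inactive means the rest.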

Test system: CEM cells HIV-1 protection, formazan growth assay
Assay: NCI AIDS Antiviral Assay
Settings: for pIC50: measured here: growth of uninfected CEM cells
How it was run: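 Human CEM cells, uninfected and HIV-1-infected, exposed to five drug concentrations; growth measured by soluble formazan assay and scored as percent protection from infection, with protecting compounds retested.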

## O=C(O)c1ccccc1O.OC1CCCC2CCC[N-]C12.[Cu+] (stereo unspecified)
  pEC50: < 3.70
  pIC50: 6.22

## CCOC(=O)c1cn(C)c2c1C(O)=C(C(=O)OC)CC(=O)N2
  pEC50: < 3.63
  pIC50: 3.75

## Cc1ncc([N+](=O)[O-])n1CCNC(=O)CCC(=O)NCCCn1ccnc1[N+](=O)[O-]
  pEC50: < 3.70
  pIC50: < 3.70

## O=C1C2=C(c3ccccc31)C(c1ccc([N+](=O)[O-])cc1)NC(=S)N2 (stereo unspecified)
  pEC50: < 3.86
  pIC50: 4.55

## CC12CCC(C/C1=N\NC(N)=O)C2(C)C (stereo unspecified)
  pEC50: < 3.70
  pIC50: < 3.70

## CC(C)CC(N)CO (stereo unspecified)
  pEC50: < 3.70
  pIC50: < 3.70

## COc1ccc(-n2c(N)c(C#N)c(C#N)c2-c2ccco2)cc1
  pEC50: < 3.70
  pIC50: < 3.70

## CC(C)=C[C@@H]1C[C@H](C)c2c(O)cc(C)c3c2C1=C(C)C(=O)C3=O
  pEC50: < 3.70
  pIC50: 4.65

## CCOP(=O)(OCC)OC1CC(n2cc(C)c(=O)n(C)c2=O)OC1CO[Si](C)(C)C(C)(C)C (stereo unspecified)
  pEC50: < 3.70
  pIC50: 3.97

## COc1cc(N=Nc2ccc(N=Nc3cc(NC(C)=O)c(N=Nc4ccc(S(=O)(=O)O)cc4)cc3S(=O)(=O)O)c(C)c2)c(C)cc1NC(=O)c1ccc(N)cc1
  pEC50: 5.45
  pIC50: 3.99

## CSc1n[nH]c(NC(=O)c2ccccc2CS)n1
  pEC50: < 4.19
  pIC50: < 4.19

## COC(=O)/C(=N\NC(=S)NN)C(C(=O)OC)C(=O)C(=O)Nc1cccc(C(F)(F)F)c1 (stereo unspecified)
  pEC50: < 3.27
  pIC50: 3.62

## COC(=O)c1cc(C(=CCCCC(=O)O)c2cc(Cl)c(OC)c(C(=O)OC)c2)cc(Cl)c1OC
  pEC50: < 3.70
  pIC50: < 3.70

## CC(=O)CCn1c(=S)sc2ccccc21
  pEC50: < 3.70
  pIC50: 4.03

## COC(=O)CN(CC1O[C@@H]2OC(C)(C)O[C@@H]2C1N=[N+]=[N-])C(=O)OCc1ccccc1 (stereo partly specified)
  pEC50: < 3.70
  pIC50: 4.68

## CSS(=O)(=O)C(c1ccccc1)c1ccccc1
  pEC50: < 3.95
  pIC50: 4.31

## S=c1nc(COc2ccc(Cl)cc2Cl)[nH][nH]1
  pEC50: < 4.17
  pIC50: 4.29

## Cc1cc(C=C2C(=O)NC(=S)NC2=O)c(C)n1-c1ccccc1
  pEC50: < 5.21
  pIC50: < 5.21

## CCOC(=O)C[C@H]1C(=O)C[C@@H]2C[C@@H](C)CC(=O)[C@@]21CCC#N
  outcome: inactive

## C=C1CN(S(=O)(=O)c2ccc(C)cc2)CCCN(C2CCCC2)CCCN(S(=O)(=O)c2ccc(C)cc2)C1
  pEC50: < 3.70
  pIC50: 5.39

## Nc1nc2c(ncn2C2CC(CO)C(CO)C2)c(=O)[nH]1 (stereo unspecified)
  pEC50: < 3.65
  pIC50: < 3.65

## COC(=O)C(C)(C)[C@@H]1OC(=O)N(S(=O)(=O)c2c(C)cc(C)cc2C)[C@H]1C(C)C
  pEC50: < 3.70
  pIC50: 4.30

## c1ccc(SSc2ccccn2)nc1
  pEC50: < 3.70
  pIC50: 5.29

## Cn1c(COc2ccc(/C=N\N3CCN(/N=C\c4ccc(OCc5c[n+]6ccccc6n5C)cc4)CC3)cc2)c[n+]2ccccc12
  pEC50: 5.20
  pIC50: 5.12

## N#CCCN(CCC#N)c1ccc(/C=C2\N=C(c3ccccc3)N(c3ccccc3)C2=O)cc1
  pEC50: < 3.70
  pIC50: 5.11

## C=CC1=CC(C)C[C@]1(O)C(=O)OC (stereo partly specified)
  pEC50: < 2.86
  pIC50: 3.15

## CCCCCCCCCCCCCCCCCCNC(=S)/N=C/c1c(O)cc(C)oc1=O
  pEC50: < 3.70
  pIC50: 4.49

## CS(=O)(=O)SCCCS(=O)(=O)O
  pEC50: < 3.04
  pIC50: < 3.04

## O/C(=C\c1nc2ccccc2nc1/C=C(\O)c1ccc(Cl)cc1)c1ccccc1
  pEC50: < 3.70
  pIC50: 5.19

## O=c1[nH]c(=S)[nH]n1C(=S)n1[nH]c(=S)[nH]c1=O
  pEC50: < 3.70
  pIC50: < 3.70

## Cc1cc(O)c(/C=N/C(N)=S)c(=O)o1
  pEC50: < 3.70
  pIC50: < 3.70

## CC(C)(C)c1ccc(O)c(C(c2ccc([N+](=O)[O-])cc2)c2cc(C(C)(C)C)ccc2O)c1
  pEC50: < 3.70
  pIC50: 5.45

## O=C1/C(=C/c2ccccc2)CN(C(=O)Oc2ccccc2)C/C1=C\c1ccccc1
  outcome: inactive

## c1ccc(-c2nc3c(N4CCOCC4)ncnc3o2)cc1
  pEC50: < 4.59
  pIC50: < 4.59
